ChEMBL document CHEMBL5107980, “Seeking heterocyclic scaffolds as antivirals against dengue virus” (Eur J Med Chem, 2022)
In brackets after ≈: the same amount, converted by molar mass.

Legend:
[1] = Inhibition of DENV-2 NS5 RdRp polymerase expressed in Escherichia coli Rosetta2(DE3) measured after 1 hr by [alpha-32P]UTP-labeled radio-probe based scintillation counter analysis; parameters: species or system dengue virus type 2
dengue virus type 2 [2] = assay: Antiviral activity against DENV2 infected in hamster BHK-21 cells assessed as inhibition of virus induced cytopathic effect incubated for 45 mins by plaque formation assay; type: functional, organism-based; details: BHK-21, 0.75 h
Aedes aegypti [3] = assay: Larvicidal activity against Aedes aegypti assessed as mortality measured upto 48 hrs; type: functional; details: for LC50: Aedes aegypti
[4] = molecular target: Genome polyprotein (dengue virus type 2) (UniProt P29990); assay: Inhibition of DENV2 NS2B-NS3 protease at 50 uM using Bz-Nle-Lys-Arg-Arg-AMC as substrate by spectrofluorometer analysis relative to control
dengue virus type 2 [5] = assay: Antiviral activity against DENV2; type: functional, organism-based
[6] = Selectivity Index, ratio of CC50 for African green monkey Vero cells to EC50 for antiviral activity against DENV2 infected in African green monkey Vero cells; type: toxicity; details: Vero cells (CC50) and DENV2-infected Vero cells (EC50)
[7] = Cytotoxicity against African green monkey Vero cells assessed as cell growth inhibition after 48 hrs by MTT assay; type: toxicity, cell-based; details: chlorocebus sabaeus
dengue virus type 2 [8] = assay: Antiviral activity against DENV2 infected in African green monkey Vero cells assessed as inhibition of viral replication measured after 48 hrs by RT-PCR analysis; type: functional, organism-based
Aedes aegypti [9] = assay: Larvicidal activity against Aedes aegypti assessed as lethal dose per mosquito measured for 24 hrs; type: functional
Aedes aegypti [10] = assay: Larvicidal activity against Aedes aegypti assessed as mortality rate at 5 ug per mosquito measured after 24 hrs relative to control; type: functional; details: dose 5 µg
[11] = molecular target: Genome polyprotein (dengue virus type 2) (UniProt P29990); assay: Inhibition of DENV2 NS2B-NS3 protease at 50 uM using Bz-Nle-Lys-Arg-Arg-AMC as substrate measured after 30 mins by spectrofluorometer analysis relative to control
Genome polyprotein = Genome polyprotein (dengue virus type 2, UniProt P29990); assay: Inhibition of DENV2 NS2B-NS3 protease using Bz-Nle-Lys-Arg-Arg-AMC as substrate measured after 30 mins by spectrofluorometer analysis
[12] = Inhibition of DENV2 His6-tagged recombinant NGC RdRP expressed in Escherichia coli Rosetta2(DE3) measured after 180 mins in presence of NTP by scintillation counter analysis; parameters: species or system dengue virus type 2
[13] = Inhibition of DENV1 (US/Hawaii/1944) RdRP expressed in Escherichia coli Rosetta2(DE3) incubated for 180 mins in presence of ATP,GTP,and UTP by scintillation counter analysis; parameters: species or system dengue virus type 1
dengue virus type 2 [14] = assay: Antiviral activity against DENV2 infected in hamster BHK-21 cells assessed as inhibition of virus induced cytopathic effect by viral tox-glo assay; type: functional, organism-based
[15] = Inhibition of DENV4 (MY01-22713) RdRP expressed in Escherichia coli Rosetta2(DE3) incubated for 180 mins in presence of ATP,GTP,and UTP by scintillation counter analysis; parameters: species or system dengue virus type 4
dengue virus type 4 [16] = assay: Antiviral activity against DENV4 infected in hamster BHK-21 cells assessed as inhibition of virus induced cytopathic effect by viral tox-glo assay; type: functional, organism-based
[17] = Inhibition of DENV3 (MY00-22366) RdRP expressed in Escherichia coli Rosetta2(DE3) incubated for 180 mins in presence of ATP,GTP,and UTP by scintillation counter analysis; parameters: species or system dengue virus type 3
dengue virus type 3 [18] = assay: Antiviral activity against DENV3 infected in hamster BHK-21 cells assessed as inhibition of virus induced cytopathic effect by viral tox-glo assay; type: functional, organism-based
dengue virus type 1 [19] = assay: Antiviral activity against DENV1 infected in hamster BHK-21 cells assessed as inhibition of virus induced cytopathic effect by viral tox-glo assay; type: functional, organism-based
Dengue virus = assay: Antiviral activity against DENV; type: functional, organism-based
[20] = Cytotoxicity against hamster BHK-21 cells assessed as cell growth inhibition after 48 hrs by MTT assay; type: toxicity, cell-based, Mesocricetus auratus
[21] = Selectivity Index, ratio of CC50 for hamster BHK-21 cells to EC50 for antiviral activity against DENV2 infected in asian tiger mosquito C6/36 cells; type: toxicity; details: BHK-21 cells (CC50) and DENV2-infected C6/36 cells (EC50)
dengue virus type 2 [22] = assay: Antiviral activity against DENV2 infected in asian tiger mosquito C6/36 cells assessed as inhibition of virus induced cytopathic effect measured after 96 hrs by methylene blue staining based microscopic analysis; type: functional, organism-based; details: C6/36, 96 h
dengue virus type 4 [23] = assay: Antiviral activity against DENV4 infected in hamster BHK-21 cells assessed as inhibition of virus induced cytopathic effect incubated for 45 mins by focus-formation assay; type: functional, organism-based; details: BHK-21, 0.75 h
dengue virus type 1 [24] = assay: Antiviral activity against DENV1 infected in hamster BHK-21 cells assessed as inhibition of virus induced cytopathic effect incubated for 45 mins by focus-formation assay; type: functional, organism-based; details: BHK-21, 0.75 h
dengue virus type 3 [25] = assay: Antiviral activity against DENV3 infected in African green monkey Vero cells assessed as inhibition of virus induced cytopathic effect incubated for 45 mins by focus-formation assay; type: functional, organism-based; details: 0.75 h

Q: With O=C1N/C(=N\c2nnc(-c3cccnc3)s2)S/C1=C\c1cccc(F)c1 as the compound, how does the IC50 [1] read?
A: Its IC50 is 5.5 µM.

Q: For FC(F)(F)Oc1ccc(Nc2ccnc(Nc3ccccc3OC(F)(F)F)n2)cc1, which IC50 (dengue virus type 2 [2]) is on record?
A: Its IC50 is 5 µM.

Q: For Cc1[nH]c2ccc(Br)cc2c1C, which LC90 (Aedes aegypti [3]) is on record?
A: The LC90 was 14.74 µM.

Q: And the LC50 (Aedes aegypti [3])?
A: Its LC50 is 10.6 µM.

Q: With Cc1cc([N+](=O)[O-])ccc1-n1sc2ccccc2c1=O as the compound, how does the inhibition [4] read?
A: Its inhibition is 92%.

Q: For O=C1N/C(=N\c2nnc(-c3ccccc3Cl)s2)S/C1=C\c1cccc(F)c1, which IC50 [1] is on record?
A: Its IC50 is 2.1 µM.

Q: With CC(C)(C)[Si](C)(C)Oc1ccc(C2N(Nc3ccc([N+](=O)[O-])cc3)C(=O)[C@@H]3Cc4ccccc4N23)cc1 (stereo not given in full) as the compound, how does the EC50 (dengue virus type 2 [5]) read?
A: Its EC50 is 4.79 µM.

Q: What does the source list for CCCc1cc(=O)oc2c(C(=O)CC(C)C)c(O)c(CC=C(C)C)c(O)c12?
A: selectivity ratio [6]: 212; CC50 at 48 h [7]: 550 µg/mL (≈ 1480 µM); EC50 (dengue virus type 2 [8]): 2.6 µg/mL (≈ 6.98 µM)

Q: For CS(=O)(=O)N1CCN(c2nnc(-c3ccc(Br)cc3)o2)C1=O, which LD50 (Aedes aegypti [9]) is on record?
A: Its LD50 is 3.55 µg.

Q: What about the Activity (Aedes aegypti [10]) of the same compound?
A: The Activity was 86.7%.

Q: What does the source list for Cc1ccc(S(=O)(=O)Nc2ccc(-c3nnc(SCc4ccccc4C(F)(F)F)o3)cc2)cc1?
A: inhibition [11]: 80.8%; IC50 (Genome polyprotein): 24 µM

Q: With O=C(NO)c1ncc(CS(=O)(=O)c2ccccc2)c(CO)c1O as the compound, how does the IC50 [12] read?
A: Its IC50 is 6 µM.

Q: What about the IC50 [13] of the same compound?
A: The IC50 was 5.7 µM.

Q: And the EC50 (dengue virus type 2 [14])?
A: Its EC50 is 2800 nM.

Q: What about the IC50 [15] of the same compound?
A: The IC50 was 5 µM.

Q: What about the EC50 (dengue virus type 4 [16]) of the same compound?
A: Its EC50 is 2200 nM.

Q: And the IC50 [17]?
A: The IC50 was 6.7 µM.

Q: What about the EC50 (dengue virus type 3 [18]) of the same compound?
A: The EC50 was 2700 nM.

Q: And the EC50 (dengue virus type 1 [19])?
A: The EC50 was 2700 nM.

Q: Which EC50 (Dengue virus) does the source give for O=C1N=Cc2ccc(Nc3ccnc4ccc(Br)cc34)cc21 here?
A: The EC50 was 640 nM.

Q: And the EC90 (Dengue virus)?
A: Its EC90 is 1500 nM.

Q: Which Activity (Aedes aegypti [10]) does the source give for CS(=O)(=O)N1CCN(c2nnc(-c3ccccc3)o2)C1=O here?
A: Its Activity is 73.3%.

Q: With CS(=O)(=O)N1CCN(c2nnc(-c3ccc(F)cc3)o2)C1=O as the compound, how does the Activity (Aedes aegypti [10]) read?
A: Its Activity is 70%.

Q: For O=c1c2ccccc2sn1-c1ccccc1O, which inhibition [4] is on record?
A: Its inhibition is 89%.

Q: Which results are given for O=C1c2ccccc2C(=O)N1CCCCSc1nnc(-c2ccc(NS(=O)(=O)c3ccc(C(F)(F)F)cc3)cc2)o1?
A: inhibition [11]: 77.6%; IC50 (Genome polyprotein): 15.1 µM

Q: For CNc1cccc(Nc2ccnc3ccc(Br)cc23)c1, which EC50 (Dengue virus) is on record?
A: Its EC50 is 240 nM.

Q: For O=c1c2ccccc2sn1-c1ccc(Br)cc1, which inhibition [4] is on record?
A: Its inhibition is 80%.

Q: Which inhibition [11] does the source give for Cc1ccc(S(=O)(=O)Nc2ccc(-c3nnc(SCc4ccc(C(F)(F)F)cc4)o3)cc2)cc1 here?
A: The inhibition was 83.9%.

Q: And the IC50 (Genome polyprotein)?
A: The IC50 was 25.2 µM.

Q: Which IC50 [1] does the source give for O=C1N/C(=N\c2nnc(-c3ccccc3F)s2)S/C1=C\c1cccc(F)c1 here?
A: Its IC50 is 7.2 µM.

Q: For CC(C)CC(=O)c1c(O)c2c(c3c(-c4ccccc4)cc(=O)oc13)OC(C)(C)C=C2 [ISOMAMMEIGIN], which selectivity ratio [6] is on record?
A: The selectivity ratio was 328.

Q: What about the CC50 at 48 h [7] of the same compound?
A: Its CC50 at 48 h is 3150 µg/mL (≈ 7790 µM).

Q: And the EC50 (dengue virus type 2 [8])?
A: Its EC50 is 9.6 µg/mL (≈ 23.7 µM).

Q: With O=c1c2ccccc2sn1-c1c(Cl)cccc1Cl as the compound, how does the inhibition [4] read?
A: The inhibition was 94%.

Q: Which CC50 at 48 h [20] does the source give for Cc1ccc(-c2nc3nc4c(c(N5CCN(Cc6ccc7c(c6)OCO7)CC5)n3n2)CCC4)cc1 here?
A: The CC50 at 48 h was 66 µM.

Q: And the selectivity ratio [21]?
A: Its selectivity ratio is 14.7.

Q: And the EC50 (dengue virus type 2 [22])?
A: Its EC50 is 4.5 µM.

Q: Which IC50 (dengue virus type 2 [2]) does the source give for FC(F)(F)Oc1cccc(Nc2nccc(Nc3ccc(C(F)(F)F)cc3)n2)c1 here?
A: The IC50 was 5 µM.

Q: Which EC50 (dengue virus type 2 [5]) does the source give for COc1ccc([C@@H]2N(Nc3ccc([N+](=O)[O-])cc3)C(=O)[C@@H]3Cc4ccccc4N23)cc1OC here?
A: The EC50 was 9.35 µM.

Q: For Cc1cc(OC(F)(F)F)ccc1Nc1ccnc(Nc2ccccc2OC(F)(F)F)n1, which IC50 (dengue virus type 2 [2]) is on record?
A: The IC50 was 5 µM.

Q: For FC(F)(F)Oc1ccccc1Nc1nccc(Nc2ccc(C(F)(F)F)cc2)n1, which IC50 (dengue virus type 4 [23]) is on record?
A: Its IC50 is 5 µM.

Q: Which inhibition [4] does the source give for O=c1c2ccccc2sn1-c1ccccc1Cl here?
A: The inhibition was 94%.

Q: For FC(F)(F)Oc1ccc(Nc2ccnc(Nc3cccc(OC(F)(F)F)c3)n2)cc1, which IC50 (dengue virus type 1 [24]) is on record?
A: The IC50 was 4 µM.

Q: For O=C1N/C(=N\c2nnc(-c3cccc(F)c3)s2)S/C1=C\c1cccc(F)c1, which IC50 [1] is on record?
A: Its IC50 is 2.3 µM.

Q: For Cc1ccc(S(=O)(=O)Nc2ccc(-c3nnc(SCc4cccc(C(F)(F)F)c4)o3)cc2)cc1, which inhibition [11] is on record?
A: Its inhibition is 80.4%.

Q: What about the IC50 (Genome polyprotein) of the same compound?
A: The IC50 was 23.9 µM.

Q: For Oc1cccc(Nc2ccnc3ccc(Br)cc23)c1, which EC50 (Dengue virus) is on record?
A: Its EC50 is 630 nM.

Q: Which LC90 (Aedes aegypti [3]) does the source give for Cc1[nH]c2c(C(=O)O)cccc2c1C here?
A: The LC90 was over 528.51 µM.

Q: And the LC50 (Aedes aegypti [3])?
A: Its LC50 is over 854 µM.

Q: For O=C1N/C(=N\c2nnc(-c3cccc(F)c3)s2)S/C1=C\c1c(Cl)cccc1Cl, which IC50 [1] is on record?
A: Its IC50 is 5.8 µM.

Q: With COc1cccc(Nc2ccnc3ccc(C(F)(F)F)cc23)c1 as the compound, how does the EC50 (Dengue virus) read?
A: The EC50 was 820 nM.

Q: Which results are given for OCCN1CCN(c2nccc(Nc3ccc(-c4ccccc4)cc3)n2)CC1?
A: LC90 (Aedes aegypti [3]): 30.13 µM; LC50 (Aedes aegypti [3]): 19.9 µM

Q: Which LD50 (Aedes aegypti [9]) does the source give for CS(=O)(=O)N1CCN(c2nnc(-c3ccc(Cl)cc3Cl)o2)C1=O here?
A: The LD50 was 2.39 µg.

Q: What about the Activity (Aedes aegypti [10]) of the same compound?
A: The Activity was 86.7%.

Q: For O=C1c2ccccc2C(=O)N1CCCSc1nnc(-c2ccc(NS(=O)(=O)c3ccc(C(F)(F)F)cc3)cc2)o1, which inhibition [11] is on record?
A: The inhibition was 99.9%.

Q: What about the IC50 (Genome polyprotein) of the same compound?
A: The IC50 was 13.9 µM.

Q: Which inhibition [4] does the source give for O=c1c2ccccc2sn1-c1ccccc1[N+](=O)[O-] here?
A: The inhibition was 72%.

Q: For Fc1cc2cn[nH]c2cc1Nc1ccnc2ccc(Br)cc12, which EC50 (Dengue virus) is on record?
A: The EC50 was 690 nM.

Q: What about the EC90 (Dengue virus) of the same compound?
A: Its EC90 is 4000 nM.

Q: For FC(F)(F)Oc1cccc(Nc2ccnc(Nc3cccc(OC(F)(F)F)c3)n2)c1, which IC50 (dengue virus type 3 [25]) is on record?
A: The IC50 was 5 µM.
